Results: the supplement of paper PMC11208160

Experiment: recombinant UMI read abundance after kanamycin selection (control-corrected) (log10(CPM+1)); higher = more efficient recombination; extreme values may be limits of the assay; sequences stand for … in AGTGCAGAGAAAATCGGCCAGTTTTCTCTGCCTGCAGTCCGCATGCCGTGGGACCCCTTGGGTTCTAACCTGTTGCCTAGATTTATGCAGCGGACTGCCTTTCTCCCAAAGTGATAAACCGG…AGGTTGGTTTCACT; site = the 11-nt donor
Method in brief: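 The measure is log10(CPM+1) for recombinant UMIs. These were PCR-amplified across the donor–target junction and sequenced after Escherichia coli carrying a donor and donor-binding-loop pair library and a target plasmid with T7-inducible IS621 bridge recombinase was plated on IPTG (0.07 mM) plus kanamycin or unselected. CPM were averaged over two replicates and scaled by control-derived factors.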
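Also: IS621 bridge recombinase in Escherichia coli cells against a fixed T5 target plasmid.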

Sequence	recombinant UMI read abundance (log10)
GTGCTACCATGGACCGGTTTTCCCGGTAATCCGTATTTGCT (site TTGCTACCTAG)	0
GTGCTCTCATGGACCGGTTTTCCCGGTAATCCGTATTTGTG (site GTGCTCTCTCA)	1.28
GTGCTGCCATGGACCGGTTTTCCCGGTAATCCGTATTTGTG (site GTGCTGCCTCA)	0.251
GTGCTGGCATGGACCGGTTTTCCCGGTAATCCGTATTTGGT (site GTGCTGGCTAC)	0.476
GTGCTTGCATGGACCGGTTTTCCCGGTAATCCGTATTTGGT (site GTGCATGCTAC)	0.0165
GTGCTTGCATGGACCGGTTTTCCCGGTAATCCGTATTTGGT (site GTGCCTGCTAC)	0.269
GTGCTTGCATGGACCGGTTTTCCCGGTAATCCGTATTTGGT (site GTGCGTGCTAC)	0.0221
GTGCTTGCATGGACCGGTTTTCCCGGTAATCCGTATTTGGT (site GTGCTTGCTAC)	1.07
GTGGAAACATGGACCGGTTTTCCCGGTAATCCGTATTTGCA (site ATGGAAACTTG)	1.42
GTGGAAACATGGACCGGTTTTCCCGGTAATCCGTATTTGCA (site CTGGAAACTTG)	1.56
GTGGAAACATGGACCGGTTTTCCCGGTAATCCGTATTTGCA (site GTGGAAACTTG)	2.37
GTGGAAACATGGACCGGTTTTCCCGGTAATCCGTATTTGCA (site TTGGAAACTTG)	2.14
GTGGAAGCATGGACCGGTTTTCCCGGTAATCCGTATTTGTG (site GTGGAAGCTCA)	2.35
GTGGAAGCATGGACCGGTTTTCCCGGTAATCCGTATTTGTG (site GTGGACGCTCA)	0.582
GTGGAAGCATGGACCGGTTTTCCCGGTAATCCGTATTTGTG (site GTGGAGGCTCA)	1.53
GTGGAAGCATGGACCGGTTTTCCCGGTAATCCGTATTTGTG (site GTGGATGCTCA)	0.605
GTGGAGCCATGGACCGGTTTTCCCGGTAATCCGTATTTGTT (site GTGGAGCCTAA)	0.012
GTGGAGGCATGGACCGGTTTTCCCGGTAATCCGTATTTGTT (site GTGGAGGCTAA)	1.58
GTGGAGGCATGGACCGGTTTTCCCGGTAATCCGTATTTGTT (site GTGGAGGCTCA)	0.524
GTGGAGGCATGGACCGGTTTTCCCGGTAATCCGTATTTGTT (site GTGGAGGCTGA)	2.66
GTGGAGGCATGGACCGGTTTTCCCGGTAATCCGTATTTGTT (site GTGGAGGCTTA)	0.938
GTGGATGCATGGACCGGTTTTCCCGGTAATCCGTATTTGGT (site GTGAATGCTAC)	2.1
GTGGATGCATGGACCGGTTTTCCCGGTAATCCGTATTTGGT (site GTGCATGCTAC)	0.00775
GTGGATGCATGGACCGGTTTTCCCGGTAATCCGTATTTGGT (site GTGGATGCTAC)	2.2
GTGGATGCATGGACCGGTTTTCCCGGTAATCCGTATTTGGT (site GTGTATGCTAC)	1.03

Sequence	recombinant UMI read abundance (log10)
GTGGCGCCATGGACCGGTTTTCCCGGTAATCCGTATTTGTA (site GTGGCGCCTTA)	0.00916
GTGGCTCCATGGACCGGTTTTCCCGGTAATCCGTATTTGTT (site GTGGCTCCTAA)	0.00981
GTGGGTACATGGACCGGTTTTCCCGGTAATCCGTATTTGAC (site GTAGGTACTGT)	2.16
GTGGGTACATGGACCGGTTTTCCCGGTAATCCGTATTTGAC (site GTCGGTACTGT)	0
GTGGGTACATGGACCGGTTTTCCCGGTAATCCGTATTTGAC (site GTGGGTACTGT)	2.91
GTGGGTACATGGACCGGTTTTCCCGGTAATCCGTATTTGAC (site GTTGGTACTGT)	2.72
GTGGGTACATGGACCGGTTTTCCCGGTAATCCGTATTTGTT (site GTGGGTACTAA)	1.15
GTGGTCGCATGGACCGGTTTTCCCGGTAATCCGTATTTGGC (site GTGGTCGCTGC)	2.91
GTGGTGGCATGGACCGGTTTTCCCGGTAATCCGTATTTGTG (site GTGGAGGCTCA)	0.789
GTGGTGGCATGGACCGGTTTTCCCGGTAATCCGTATTTGTG (site GTGGCGGCTCA)	0.0357
GTGGTGGCATGGACCGGTTTTCCCGGTAATCCGTATTTGTG (site GTGGGGGCTCA)	0.0222
GTGGTGGCATGGACCGGTTTTCCCGGTAATCCGTATTTGTG (site GTGGTGGCTCA)	0.992
GTGTCCGCATGGACCGGTTTTCCCGGTAATCCGTATTTGGC (site GTGTCCGCTGC)	2.26
GTGTGGGCATGGACCGGTTTTCCCGGTAATCCGTATTTGAG (site GTGTGGGCTCT)	1.21
GTGTTACCATGGACCGGTTTTCCCGGTAATCCGTATTTGGT (site GTGTTACCTAC)	0
GTGTTATCATGGACCGGTTTTCCCGGTAATCCGTATTTGCT (site GTGTTATCTAG)	2.87
GTTACACCATGGACCGGTTTTCCCGGTAATCCGTATTTGGC (site GTTACACCTGC)	0
GTTAGAACATGGACCGGTTTTCCCGGTAATCCGTATTTGAC (site GTTAGAACTGA)	0.0146
GTTAGAACATGGACCGGTTTTCCCGGTAATCCGTATTTGAC (site GTTAGAACTGC)	0.0153
GTTAGAACATGGACCGGTTTTCCCGGTAATCCGTATTTGAC (site GTTAGAACTGG)	0
GTTAGAACATGGACCGGTTTTCCCGGTAATCCGTATTTGAC (site GTTAGAACTGT)	1.89
GTTAGAACATGGACCGGTTTTCCCGGTAATCCGTATTTGGA (site GTTAGAACTAC)	0.00435
GTTAGAACATGGACCGGTTTTCCCGGTAATCCGTATTTGGA (site GTTAGAACTCC)	0.0329
GTTAGAACATGGACCGGTTTTCCCGGTAATCCGTATTTGGA (site GTTAGAACTGC)	0
GTTAGAACATGGACCGGTTTTCCCGGTAATCCGTATTTGGA (site GTTAGAACTTC)	0.178

Sequence	recombinant UMI read abundance (log10)
GTTAGAGCATGGACCGGTTTTCCCGGTAATCCGTATTTGTG (site GTTAGAGCTCA)	1.74
GTTAGGACATGGACCGGTTTTCCCGGTAATCCGTATTTGAG (site GTTAGGACTCT)	1.83
GTTATCCCATGGACCGGTTTTCCCGGTAATCCGTATTTGGC (site GTTATCCCTGC)	0
GTTCAAGCATGGACCGGTTTTCCCGGTAATCCGTATTTGCA (site GTTCAAGCTTG)	1.62
GTTCAAGCATGGACCGGTTTTCCCGGTAATCCGTATTTGCA (site GTTCCAGCTTG)	0
GTTCAAGCATGGACCGGTTTTCCCGGTAATCCGTATTTGCA (site GTTCGAGCTTG)	0
GTTCAAGCATGGACCGGTTTTCCCGGTAATCCGTATTTGCA (site GTTCTAGCTTG)	0
GTTCGAGCATGGACCGGTTTTCCCGGTAATCCGTATTTGAT (site GTTCGAGCTAT)	1.75
GTTCGATCATGGACCGGTTTTCCCGGTAATCCGTATTTGCA (site GTTCGAACTTG)	0
GTTCGATCATGGACCGGTTTTCCCGGTAATCCGTATTTGCA (site GTTCGACCTTG)	0
GTTCGATCATGGACCGGTTTTCCCGGTAATCCGTATTTGCA (site GTTCGAGCTTG)	0.00436
GTTCGATCATGGACCGGTTTTCCCGGTAATCCGTATTTGCA (site GTTCGATCTTG)	2.08
GTTCTCCCATGGACCGGTTTTCCCGGTAATCCGTATTTGCG (site GTTCTCCCTCG)	0.002
GTTGACACATGGACCGGTTTTCCCGGTAATCCGTATTTGAA (site GTTGACACTTT)	0.918
GTTGACACATGGACCGGTTTTCCCGGTAATCCGTATTTGGG (site GTTGACACTCC)	0.371
GTTGAGCCATGGACCGGTTTTCCCGGTAATCCGTATTTGTG (site GTTGAGCCTCA)	0.033
GTTGAGGCATGGACCGGTTTTCCCGGTAATCCGTATTTGTG (site GTAGAGGCTCA)	1.5
GTTGAGGCATGGACCGGTTTTCCCGGTAATCCGTATTTGTG (site GTCGAGGCTCA)	0.879
GTTGAGGCATGGACCGGTTTTCCCGGTAATCCGTATTTGTG (site GTGGAGGCTCA)	0.355
GTTGAGGCATGGACCGGTTTTCCCGGTAATCCGTATTTGTG (site GTTGAGGCTCA)	1.07
GTTGATCCATGGACCGGTTTTCCCGGTAATCCGTATTTGGT (site GTTGATCCTAC)	0.00442
GTTGATCCATGGACCGGTTTTCCCGGTAATCCGTATTTGGT (site GTTGCTCCTAC)	0.0151
GTTGATCCATGGACCGGTTTTCCCGGTAATCCGTATTTGGT (site GTTGGTCCTAC)	0.0158
GTTGATCCATGGACCGGTTTTCCCGGTAATCCGTATTTGGT (site GTTGTTCCTAC)	0.011
GTTGCAACATGGACCGGTTTTCCCGGTAATCCGTATTTGCC (site GTTGCAACTGG)	0
